# From patent publication US8778966B2, “Quinolinone derivatives as PARP and tank inhibitors” (Janssen Pharmaceutica, NV, priority 2007, dated 2014)
# Key:
# [1] = system: tubulin; assay: Tubulin polymerization assay; assay type: biochemical; set-up: key: a compound showing 0 to 50% inhibition at 20 μM is reported as score 1; Score 2 compounds are defined as compound showing more than 50% inhibition at 20 μM and less than 50% inhibition at 5 μM; a compound showing more than 50% inhibition at 5 μM is reported as score 3; conditions: tested at 20 μM and 5 μM
# Protocol: The tubulin polymerization assay is an adaptation of an assay originally described by Bonne, D. et al. (J. Biol. Chem., 1985, 260:2819-25). The assay kit was purchased from Cytoskeleton, Inc. (catalogue number BK011) and the assay was performed as described by the supplier with the following modifications. The assay was run in a 384-well black Proxiplate (Perkin Elmer) and volumes were adapted accordingly. The reactions were carried out in a final volume of 10 μl. Compounds were added to 25 μl of the reaction mix in 96-well PP plates (Corning) on ice and 10 μl of this mixture was dispensed into duplicates of the 384-well Proxiplates pre-warmed to 37° C. in a Fluoroskan Ascent plate reader (Thermo Scientific). Fluorescence measurements were taken every minute for one hour. The maximum slope of each well was determined (linear regression through 4 consecutive points) and polymerization was calculated as a percentage of polymerization observed in the absence of compound. Compounds were first measured at a concentration of 20 μM and then at 5 μM for those showing more than 50% inhibition at 20 μM as compared to the polymerization observed in the absence of compound. Results are reported in Table F-2 as scores defined as: a compound showing 0 to 50% inhibition at 20 μM is reported as score 1; a compound showing more than 50% inhibition at 5 μM is reported as score 3.
# [2] = system: PC3 cells; assay: EB1 Comet (microtubule disruption) assay; assay type: cell-based, human; conditions: Homo sapiens, PC-3, 1 h, 1 hour treatment, read-out: EB1 pLAC (converted)
# How it was run: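 PC3 human prostate cancer cells exposed to compound for 1 h at 37 °C (0.6% DMSO final), methanol-fixed, immunostained for Eb1 and imaged at 20×. Value is the lowest active concentration (LAC): the concentration at which Eb1 foci are absent in at least 50% of treated cells.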
# [3] = target: T1, Human PARP-1 enzyme (Homo sapiens, UniProt P09874); assay: In vitro Scintillation Proximity Assay (SPA) for PARP-1 inhibitory activity; assay type: biochemical; conditions: read-out: in vitro SPA assay PARP-1 pIC50 (converted)
# T1 construct: purchased Trevigen
# How it was run: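 SPA assay: nicked-DNA-activated PARP-1 (0.1–0.2 μg/ml) ADP-ribosylates biotinylated histones (2 μg/ml) using [3H]-NAD+, 20 min at RT in Tris pH 8/DTT/MgCl2, stopped with 2 mM NAD+. Blank-subtracted cpm expressed as % control; IC50 by linear interpolation, reported as pIC50 (10−5 to 3×10−9 M tested).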
# T1 sequence (P09874 whole entry): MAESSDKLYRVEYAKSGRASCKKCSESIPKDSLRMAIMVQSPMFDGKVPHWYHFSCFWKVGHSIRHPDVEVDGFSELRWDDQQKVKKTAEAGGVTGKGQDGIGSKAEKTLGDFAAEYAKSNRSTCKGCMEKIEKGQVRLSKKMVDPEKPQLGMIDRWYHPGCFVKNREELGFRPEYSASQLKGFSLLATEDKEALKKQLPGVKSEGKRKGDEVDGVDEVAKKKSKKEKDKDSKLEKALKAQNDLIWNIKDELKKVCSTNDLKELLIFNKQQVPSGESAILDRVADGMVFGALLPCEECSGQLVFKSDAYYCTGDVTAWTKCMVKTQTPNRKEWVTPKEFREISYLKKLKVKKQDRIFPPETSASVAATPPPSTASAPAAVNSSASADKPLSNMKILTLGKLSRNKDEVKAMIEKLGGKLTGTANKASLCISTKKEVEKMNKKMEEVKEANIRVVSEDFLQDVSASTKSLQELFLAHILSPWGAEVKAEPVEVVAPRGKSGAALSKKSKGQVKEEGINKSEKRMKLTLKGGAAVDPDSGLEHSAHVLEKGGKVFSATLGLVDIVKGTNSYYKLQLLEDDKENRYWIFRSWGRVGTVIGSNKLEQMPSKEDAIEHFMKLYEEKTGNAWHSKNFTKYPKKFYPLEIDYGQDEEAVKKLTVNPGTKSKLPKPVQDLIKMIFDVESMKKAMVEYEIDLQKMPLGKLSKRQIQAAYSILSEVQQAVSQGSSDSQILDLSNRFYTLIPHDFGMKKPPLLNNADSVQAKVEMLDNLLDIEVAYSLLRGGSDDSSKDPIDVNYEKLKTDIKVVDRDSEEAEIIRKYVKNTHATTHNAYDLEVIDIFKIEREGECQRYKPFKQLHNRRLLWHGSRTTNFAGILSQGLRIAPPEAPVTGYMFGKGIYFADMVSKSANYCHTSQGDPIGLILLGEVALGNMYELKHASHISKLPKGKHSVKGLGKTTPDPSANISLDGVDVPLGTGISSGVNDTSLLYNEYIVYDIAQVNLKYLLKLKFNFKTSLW
IC50 [3],Compound,tubulin polymerisation score [1],minimal effective concentration [2]
63.1 nM,"CCc1cc2c(OC)cc(C(C)(C#N)Cc3nc(OC)cc(OC)n3)cc2[nH]c1=O (single isomer, unassigned) [Compound 230]",1 (a compound showing 0 to 50% inhibition at 20 μM is reported as score 1),1 µM
50.1 nM,"CCc1cc2ccc([C@](C)(C#N)CCOc3ccc(C#N)cc3)cc2[nH]c1=O (single isomer, unassigned) [Compound 275]",,
25.1 nM,"CCc1cc2ccc([C@](C)(C#N)Cc3cccc(/C=C/S(C)(=O)=O)c3)cc2[nH]c1=O (single isomer, unassigned) [Compound 291]",2,
25.1 nM,"CCc1cc2ccc([C@@](C)(C#N)Cc3cccc(C#CCO)c3)cc2[nH]c1=O (single isomer, unassigned) [Compound 295]",1 (a compound showing 0 to 50% inhibition at 20 μM is reported as score 1),
31.6 nM,"CCc1cc2ccc([C@](C)(C#N)Cc3cccc(C#CCO)c3)cc2[nH]c1=O (single isomer, unassigned) [Compound 296]",2,
126 nM,"CCc1cc2ccc([C@@](C)(C#N)Cc3cc(OC)nc(C)n3)cc2[nH]c1=O (single isomer, unassigned) [Compound 361]",1 (a compound showing 0 to 50% inhibition at 20 μM is reported as score 1),
631 nM,"CCc1cc2ccc([C@](C)(C#N)Cc3cc(OC)nc(C)n3)cc2[nH]c1=O (single isomer, unassigned) [Compound 362]",2,
100 nM,"Cc1cc2ccc([C@@](C)(C#N)C3CCc4ccccc43)cc2[nH]c1=O (single isomer, unassigned) [Compound 385]",,10 µM
200 nM,Cc1cc2ccc(C(C)(C#N)Cc3cccc(C=Cc4ccccc4)c3)cc2[nH]c1=O (stereo not drawn) [Compound 179],,1.78 µM
39.8 nM,CCc1cc2ccc(C(C)(C#N)Cc3cccc(C(=N)NO)c3)cc2[nH]c1=O (stereo not drawn) [Compound 186],,3.16 µM
398 nM,Cc1cc2ccc(C(C)(C#N)Cc3cccc(Oc4ccc(F)cc4)c3)cc2[nH]c1=O (stereo not drawn) [Compound 192],,1 µM
100 nM,CCc1cc2ccc(C(C)(C#N)COCc3ccccc3)cc2[nH]c1=O (stereo not drawn) [Compound 197],,
126 nM,Cc1nc(-c2ccccc2)sc1CC(C)(C#N)c1ccc2cc(C)c(=O)[nH]c2c1 (stereo not drawn) [Compound 235],1 (a compound showing 0 to 50% inhibition at 20 μM is reported as score 1),
50.1 nM,CCc1cc2ccc(C(C)(C#N)Cc3cccc(C(=O)OC(C)C)c3)cc2[nH]c1=O (stereo not drawn) [Compound 255],2,
126 nM,Cc1cc2ccc(C(C)(C#N)Cc3cccc(I)c3)cc2[nH]c1=O (stereo not drawn) [Compound 256],,0.316 µM
79.4 nM,CCc1cc2ccc(C(C)(C#N)Cc3cccc(NC)c3)cc2[nH]c1=O (stereo not drawn) [Compound 257],,0.316 µM
79.4 nM,CCc1cc2ccc(C(C)(C#N)Cc3cc(Br)cc(N(C)C)c3)cc2[nH]c1=O (stereo not drawn) [Compound 260],2,
100 nM,Cc1cc2ccc(C(C)(C#N)Cc3cccc(OCC4CCOCC4)c3)cc2[nH]c1=O (stereo not drawn) [Compound 261],,1.78 µM
50.1 nM,CCc1cc2ccc(C(C)(C#N)Cc3cc(F)ccc3F)cc2[nH]c1=O (stereo not drawn) [Compound 280],,1 µM
39.8 nM,CCc1cc2ccc(C(C)(C#N)Cc3ccc(F)c(F)c3)cc2[nH]c1=O (stereo not drawn) [Compound 281],,0.316 µM
79.4 nM,CCc1cc2ccc(C(C)(C#N)Cc3cc(C(F)(F)F)ccc3F)cc2[nH]c1=O (stereo not drawn) [Compound 283],,1 µM
25.1 nM,CCc1cc2ccc(C(C)(C#N)Cc3cccc(OC)c3F)cc2[nH]c1=O (stereo not drawn) [Compound 286],,0.562 µM

IC50 [3],Compound,tubulin polymerisation score [1],minimal effective concentration [2]
158 nM,CCc1cc2ccc(C(C)(C#N)Cc3cc(C(C)C)ccc3OC)cc2[nH]c1=O (stereo not drawn) [Compound 288],,
31.6 nM,CCc1cc2ccc(C(C)(C#N)Cc3cccc(/C=N/O)c3)cc2[nH]c1=O (stereo not drawn) [Compound 299],,1 µM
126 nM,CCc1cc2ccc(C(C)(C#N)CNCc3ccc(C#N)cc3)cc2[nH]c1=O (stereo not drawn) [Compound 302],,1 µM
200 nM,Cc1cc2ccc(C(C)(C#N)Cc3cccc(Oc4ccccc4)c3)cc2[nH]c1=O (stereo not drawn) [Compound 305],,3.16 µM
79.4 nM,CCc1cc2ccc(C(C)(C#N)Cc3cc(N(C)C)nc(C#N)n3)cc2[nH]c1=O (stereo not drawn) [Compound 317],,1 µM
200 nM,CCc1cc2ccc(C(C)(C#N)Cc3cc(N(C)C)nc(N(C)C)n3)cc2[nH]c1=O (stereo not drawn) [Compound 320],,0.316 µM
200 nM,CCc1cc2ccc(C(C)(C#N)Cc3cc(N(C)C)nc(C)n3)cc2[nH]c1=O (stereo not drawn) [Compound 322],,1 µM
79.4 nM,CCc1cc2ccc(C(C)(C#N)Cc3cc(Cl)nc(N(C)C)c3)cc2[nH]c1=O (stereo not drawn) [Compound 323],2,
79.4 nM,CCc1cc2ccc(C(C)(C#N)Cc3cc(C#N)nc(N(C)C)c3)cc2[nH]c1=O (stereo not drawn) [Compound 325],,3.16 µM
39.8 nM,CCc1cc2ccc(C(C)(C#N)Cc3cccc(NC)n3)cc2[nH]c1=O (stereo not drawn) [Compound 339],2,
79.4 nM,CCc1cc2ccc(C(C)(C#N)Cc3ccc4c(c3)OC(F)(F)O4)cc2[nH]c1=O (stereo not drawn) [Compound 346],,
158 nM,CCc1cc2ccc(C(C)(C#N)Cc3c4ccccc4nn3C)cc2[nH]c1=O (stereo not drawn) [Compound 347],,0.562 µM
63.1 nM,CCc1cc2ccc(C(C)(C#N)Cc3cc(Cl)nc(OC)c3)cc2[nH]c1=O (stereo not drawn) [Compound 351],,0.1 µM
79.4 nM,CCc1cc2ccc(C(C)(C#N)Cc3cc(N(C)C)nc(OC)n3)cc2[nH]c1=O (stereo not drawn) [Compound 354],,1 µM
50.1 nM,CCc1cc2ccc(C(C)(C#N)Cc3nc(OC)cc(N(C)C)n3)cc2[nH]c1=O (stereo not drawn) [Compound 355],2,
126 nM,CCc1cc2ccc(C(C)(C#N)Cc3cc(Cl)nc(C)n3)cc2[nH]c1=O (stereo not drawn) [Compound 365],,0.316 µM
79.4 nM,CCc1cc2ccc(C(C)(C#N)Cc3cc(Br)cc4c3OCC4)cc2[nH]c1=O (stereo not drawn) [Compound 378],,0.316 µM
25.1 nM,CCc1cc2ccc(C(C)(C#N)Cc3cccc4[nH]ccc34)cc2[nH]c1=O (stereo not drawn) [Compound 379],2,
200 nM,Cc1cc2ccc([C@](C)(C#N)[C@H]3CCc4ccccc43)cc2[nH]c1=O [Compound 387],,3.16 µM
126 nM,Cc1cc2ccc(C(C)(C#N)C3CCc4ccccc43)cc2[nH]c1=O (stereo not drawn) [Compound 392],,0.316 µM
200 nM,Cc1cc2ccc(C(C)(C#N)C3CCCc4ccccc43)cc2[nH]c1=O (stereo not drawn) [Compound 404],,0.562 µM
100 nM,Cc1cc2ccc(C(C)(C#N)Cc3cccc(/C=C/CCO)c3)cc2[nH]c1=O (stereo not drawn) [Compound 409],,
